Experiments:
[1] = test system: wheat; assay: Test A preemergence; assay type: in vivo, Triticum aestivum; conditions: 0 to 100 scale
Procedure, shortened: (§1)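 After sowing in a sand–loam mix, pots received compound preemergence by directed soil spray, or postemergence once plants reached the one- to two-leaf stage (2–10 cm). Formulation contained surfactant in a non-phytotoxic solvent. Injury was scored visually after ~10 greenhouse days, 0–100 scale.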

[2] = test system: foxtail, giant; assay: Test A preemergence; assay type: in vivo, Setaria faberii; conditions: 0 to 100 scale
Procedure, shortened: as §1

[3] = test system: foxtail, giant; assay: Test A postemergence; assay type: in vivo, Setaria faberii
Procedure, shortened: as §1

[4] = test system: barnyardgrass; assay: Test A preemergence; assay type: in vivo, Echinochloa crus-galli; conditions: 0 to 100 scale
Procedure, shortened: as §1

[5] = test system: wheat; assay: Test A postemergence; assay type: in vivo, Triticum aestivum
Procedure, shortened: as §1

[6] = test system: barnyardgrass; assay: Test C flooded paddy test; assay type: in vivo, Echinochloa crus-galli; conditions: Flood
Excerpt: (§2) At time of treatment, test pots were flooded to 3 cm above the soil surface, treated by application of test compounds directly to the paddy water, and then maintained at that water depth for the duration of the test. Treated plants and controls were maintained in a greenhouse for 13 to 15 days, after which time all species were compared to controls and visually evaluated. […] A dash (-) response means no test result.

[7] = test system: pigweed; assay: Test A preemergence; assay type: in vivo, Amaranthus retroflexus; conditions: 0 to 100 scale
Procedure, shortened: as §1

[8] = test system: corn; assay: Test A postemergence; assay type: in vivo, Zea mays
Procedure, shortened: as §1

[9] = test system: crabgrass, large; assay: Test A postemergence; assay type: in vivo, Digitaria sanguinalis
Procedure, shortened: as §1

[10] = test system: sedge, umbrella; assay: Test C flooded paddy test; assay type: in vivo, Cyperus difformis; conditions: Flood
Excerpt: as §2

[11] = test system: velvetleaf; assay: Test A postemergence; assay type: in vivo, Abutilon theophrasti
Procedure, shortened: as §1

[12] = test system: morningglory; assay: Test A preemergence; assay type: in vivo, Ipomoea spp.; conditions: 0 to 100 scale
Procedure, shortened: as §1

[13] = test system: corn; assay: Test A preemergence; assay type: in vivo, Zea mays; conditions: 0 to 100 scale
Procedure, shortened: as §1

[14] = test system: velvetleaf; assay: Test A preemergence; assay type: in vivo, Abutilon theophrasti; conditions: 0 to 100 scale
Procedure, shortened: as §1

[15] = test system: ducksalad; assay: Test C flooded paddy test; assay type: in vivo, Heteranthera limosa; conditions: Flood
Excerpt: as §2

[16] = test system: rice; assay: Test C flooded paddy test; assay type: in vivo, Oryza sativa; conditions: Flood
Excerpt: as §2

[17] = test system: crabgrass, large; assay: Test A preemergence; assay type: in vivo, Digitaria sanguinalis; conditions: 0 to 100 scale
Procedure, shortened: as §1

[18] = test system: barnyardgrass; assay: Test A postemergence; assay type: in vivo, Echinochloa crus-galli; conditions: Postemergence
Procedure, shortened: as §1

[19] = test system: morningglory; assay: Test A postemergence; assay type: in vivo, Ipomoea spp.
Procedure, shortened: as §1

[20] = test system: pigweed; assay: Test A postemergence; assay type: in vivo, Amaranthus retroflexus
Procedure, shortened: as §1

[21] = preemergence, 125 g ai/ha, visual injury, approx. 10 days
[22] = Preemergence, 500 g ai/ha, 0 no effect, 100 complete control
[23] = Postemergence, 500 g ai/ha, visual rating after approx. 10 days, 0 to 100 scale (0 no effect, 100 complete control)
[24] = postemergence, 125 g ai/ha, about 10 days, visual rating on 0 to 100 scale (0 no effect, 100 complete control)
[25] = 62 g ai/ha, scale 0 to 100 (0 no effect, 100 complete control)
[26] = Preemergence, 1000 g ai/ha, 0 no effect, 100 complete control
[27] = Postemergence, 1000 g ai/ha, visual rating after approx. 10 days, 0 to 100 scale (0 no effect, 100 complete control)
[28] = 31 g ai/ha, scale 0 to 100 (0 no effect, 100 complete control)
[29] = 1000 g ai/ha, visual rating after approx. 10 days, 0 to 100 scale (0 no effect, 100 complete control)

Cc1cc(C(=O)NCC(F)(F)F)nn1Cc1cccc(OC(F)(F)F)c1 [Compound 5]
50: Plant response rating, Sedge, Umbrella [10, 25] | Pigweed plant response rating [20, 24]
100: Pigweed plant response rating [7, 22] | Crabgrass, Large plant response rating [17, 22] | Morningglory plant response rating [19, 23]
70: Foxtail, Giant plant response rating [2, 22] | Crabgrass, Large plant response rating [9, 23]
40: Corn plant response rating [8, 23] | Morningglory plant response rating [12, 22] | Barnyardgrass plant response rating ([18]; 500 g ai/ha, visual rating after approx. 10 days, 0 to 100 scale (0 no effect, 100 complete control)) | Morningglory plant response rating [19, 24]
20: Velvetleaf plant response rating [11, 24] | Velvetleaf plant response rating [14, 22] | Crabgrass, Large plant response rating [17, 21]
90: Pigweed plant response rating [20, 23]
75: Plant response rating, Sedge, Umbrella ([10]; 250 g ai/ha, scale 0 to 100)
0: Wheat plant response rating [1, 21] | Barnyardgrass plant response rating [4, 21] | Wheat plant response rating [5, 24] | Plant response rating, Barnyardgrass [6, 25] | Plant response rating, Barnyardgrass ([6]; 250 g ai/ha, scale 0 to 100) | Morningglory plant response rating [12, 21] | Corn plant response rating [13, 22] | Corn plant response rating [13, 21] | Velvetleaf plant response rating [14, 21] | Plant response rating, Ducksalad [15, 25] | Plant response rating, Rice [16, 25] | Plant response rating, Rice ([16]; 250 g ai/ha, scale 0 to 100)
60: Foxtail, Giant plant response rating [3, 23] | Barnyardgrass plant response rating [4, 22] | Velvetleaf plant response rating [11, 23] | Plant response rating, Ducksalad ([15]; 250 g ai/ha, scale 0 to 100)
10: Foxtail, Giant plant response rating [2, 21] | Foxtail, Giant plant response rating [3, 24] | Wheat plant response rating [5, 23] | Pigweed plant response rating [7, 21] | Corn plant response rating [8, 24] | Crabgrass, Large plant response rating [9, 24] | Barnyardgrass plant response rating ([18]; 125 g ai/ha, 0 to 100 scale, 0 no effect, 100 complete control)

CCCNC(=O)c1cc(CC)n(Cc2cccc(C(F)(F)F)c2)n1 [Compound 16]
0: Plant response rating, Barnyardgrass [6, 28] | Plant response rating, Barnyardgrass [6, 25] | Plant response rating, Barnyardgrass ([6]; 125 g ai/ha, scale 0 to 100) | Plant response rating, Rice [16, 28] | Plant response rating, Rice [16, 25]
80: Foxtail, Giant plant response rating [3, 27] | Crabgrass, Large plant response rating [9, 27]
85: Plant response rating, Sedge, Umbrella [10, 25] | Plant response rating, Ducksalad [15, 25]
50: Wheat plant response rating [1, 26] | Wheat plant response rating [5, 27] | Corn plant response rating [8, 27] | Corn plant response rating [13, 26] | Plant response rating, Ducksalad [15, 28]
95: Plant response rating, Ducksalad ([15]; 125 g ai/ha, scale 0 to 100)
25: Plant response rating, Rice ([16]; 125 g ai/ha, scale 0 to 100) | Plant response rating, Rice ([16]; 250 g ai/ha, scale 0 to 100)
20: Plant response rating, Barnyardgrass ([6]; 250 g ai/ha, scale 0 to 100)
70: Plant response rating, Sedge, Umbrella [10, 28]
100: Foxtail, Giant plant response rating [2, 26] | Pigweed plant response rating [7, 26] | Plant response rating, Sedge, Umbrella ([10]; 125 g ai/ha, scale 0 to 100) | Plant response rating, Sedge, Umbrella ([10]; 250 g ai/ha, scale 0 to 100) | Velvetleaf plant response rating [11, 27] | Morningglory plant response rating [12, 26] | Plant response rating, Ducksalad ([15]; 250 g ai/ha, scale 0 to 100) | Crabgrass, Large plant response rating [17, 26] | Morningglory plant response rating [19, 27]
30: Velvetleaf plant response rating [14, 26]
90: Barnyardgrass plant response rating [4, 26] | Pigweed plant response rating [20, 27]
60: Barnyardgrass plant response rating [18, 29]

CCCc1cc(C(=O)NCC(F)(F)F)nn1Cc1cccc(OC(F)(F)F)c1 [Compound 32]
10: Plant response rating, Ducksalad [15, 28]
40: Barnyardgrass plant response rating [18, 29]
20: Wheat plant response rating [5, 27] | Plant response rating, Sedge, Umbrella [10, 28] | Plant response rating, Ducksalad [15, 25]
70: Barnyardgrass plant response rating [4, 26] | Crabgrass, Large plant response rating [9, 27] | Plant response rating, Ducksalad ([15]; 250 g ai/ha, scale 0 to 100)
100: Foxtail, Giant plant response rating [2, 26] | Pigweed plant response rating [7, 26] | Crabgrass, Large plant response rating [17, 26] | Morningglory plant response rating [19, 27] | Pigweed plant response rating [20, 27]
80: Plant response rating, Sedge, Umbrella ([10]; 250 g ai/ha, scale 0 to 100) | Velvetleaf plant response rating [11, 27]
30: Corn plant response rating [8, 27] | Plant response rating, Sedge, Umbrella [10, 25] | Velvetleaf plant response rating [14, 26]
0: Wheat plant response rating [1, 26] | Plant response rating, Barnyardgrass [6, 28] | Plant response rating, Barnyardgrass [6, 25] | Plant response rating, Barnyardgrass ([6]; 125 g ai/ha, scale 0 to 100) | Plant response rating, Barnyardgrass ([6]; 250 g ai/ha, scale 0 to 100) | Corn plant response rating [13, 26] | Plant response rating, Rice [16, 28] | Plant response rating, Rice [16, 25] | Plant response rating, Rice ([16]; 125 g ai/ha, scale 0 to 100) | Plant response rating, Rice ([16]; 250 g ai/ha, scale 0 to 100)
50: Foxtail, Giant plant response rating [3, 27] | Plant response rating, Sedge, Umbrella ([10]; 125 g ai/ha, scale 0 to 100) | Morningglory plant response rating [12, 26] | Plant response rating, Ducksalad ([15]; 125 g ai/ha, scale 0 to 100)

CCCc1cc(C(=O)NCC)nn1Cc1cccc(OC(F)(F)F)c1 [Compound 33]
20: Wheat plant response rating [5, 27] | Corn plant response rating [8, 27] | Plant response rating, Ducksalad ([15]; 125 g ai/ha, scale 0 to 100)
30: Plant response rating, Sedge, Umbrella [10, 25] | Plant response rating, Sedge, Umbrella ([10]; 125 g ai/ha, scale 0 to 100) | Barnyardgrass plant response rating [18, 29]
40: Barnyardgrass plant response rating [4, 26] | Morningglory plant response rating [12, 26] | Velvetleaf plant response rating [14, 26]
10: Wheat plant response rating [1, 26] | Plant response rating, Sedge, Umbrella [10, 28] | Plant response rating, Ducksalad [15, 25]
100: Crabgrass, Large plant response rating [17, 26] | Morningglory plant response rating [19, 27]
80: Crabgrass, Large plant response rating [9, 27] | Velvetleaf plant response rating [11, 27] | Plant response rating, Ducksalad ([15]; 250 g ai/ha, scale 0 to 100) | Pigweed plant response rating [20, 27]
0: Plant response rating, Barnyardgrass [6, 28] | Plant response rating, Barnyardgrass [6, 25] | Plant response rating, Barnyardgrass ([6]; 125 g ai/ha, scale 0 to 100) | Plant response rating, Barnyardgrass ([6]; 250 g ai/ha, scale 0 to 100) | Corn plant response rating [13, 26] | Plant response rating, Ducksalad [15, 28] | Plant response rating, Rice [16, 28] | Plant response rating, Rice [16, 25] | Plant response rating, Rice ([16]; 125 g ai/ha, scale 0 to 100) | Plant response rating, Rice ([16]; 250 g ai/ha, scale 0 to 100)
85: Plant response rating, Sedge, Umbrella ([10]; 250 g ai/ha, scale 0 to 100)
90: Foxtail, Giant plant response rating [2, 26] | Pigweed plant response rating [7, 26]
70: Foxtail, Giant plant response rating [3, 27]

CCCc1cc(C(=O)NC2CC2)nn1Cc1cccc(OC(F)(F)F)c1 [Compound 34]
50: Barnyardgrass plant response rating [18, 29]
80: Pigweed plant response rating [7, 26] | Plant response rating, Sedge, Umbrella ([10]; 250 g ai/ha, scale 0 to 100) | Plant response rating, Ducksalad ([15]; 250 g ai/ha, scale 0 to 100)
30: Wheat plant response rating [5, 27] | Velvetleaf plant response rating [14, 26] | Plant response rating, Ducksalad ([15]; 125 g ai/ha, scale 0 to 100)
60: Barnyardgrass plant response rating [4, 26] | Morningglory plant response rating [12, 26]
0: Plant response rating, Barnyardgrass [6, 28] | Plant response rating, Barnyardgrass [6, 25] | Plant response rating, Barnyardgrass ([6]; 125 g ai/ha, scale 0 to 100) | Plant response rating, Sedge, Umbrella [10, 28] | Plant response rating, Ducksalad [15, 28] | Plant response rating, Rice [16, 28] | Plant response rating, Rice [16, 25] | Plant response rating, Rice ([16]; 125 g ai/ha, scale 0 to 100)
100: Foxtail, Giant plant response rating [2, 26] | Velvetleaf plant response rating [11, 27] | Crabgrass, Large plant response rating [17, 26] | Morningglory plant response rating [19, 27] | Pigweed plant response rating [20, 27]
40: Corn plant response rating [8, 27]
10: Plant response rating, Sedge, Umbrella [10, 25] | Corn plant response rating [13, 26] | Plant response rating, Ducksalad [15, 25] | Plant response rating, Rice ([16]; 250 g ai/ha, scale 0 to 100)
70: Plant response rating, Sedge, Umbrella ([10]; 125 g ai/ha, scale 0 to 100)
90: Foxtail, Giant plant response rating [3, 27] | Crabgrass, Large plant response rating [9, 27]
20: Wheat plant response rating [1, 26] | Plant response rating, Barnyardgrass ([6]; 250 g ai/ha, scale 0 to 100)

Reference: patent US20150105252A1, “SUBSTITUTED PYRAZOLES AS HERBICIDES” (E I DU PONT DE NEMOURS AND COMPANY, priority 2013, published 2015)
